Test results: patent US20230200390A1, “SELECTIVE HERBICIDES BASED ON SUBSTITUTED ISOXAZOLIN CARBOXAMIDES AND MEFENPYR-DIETHYL” (BAYER AKTIENGESELLSCHAFT, priority 2020, published 2023)

What was measured:
Type in all cases: in vivo
[1] = system: spring barley, HORVS Montoya; test: Tank-mix; post-emergence: crop damage by herbicide with/without safener mefenpyr-diethyl
Experimental: (§1) Seeds of crops (spring wheat, TRZAS; spring barley, HORVS; maize, ZEAMA) were placed in sandy loam soil in peat pots, covered with soil and cultivated in a greenhouse under good growth conditions. Two to three weeks after sowing, the test plants were treated at the 1 to 3-leaf stage. The herbicide/safener active compound combinations according to the invention, formulated as wettable powders or emulsion concentrates, and, in parallel tests, the correspondingly formulated individual active compounds were sprayed onto the green parts of the plants in various dosages using an amount of water of 300 l/ha (converted).
(§2) The pots were returned under good growing conditions in a glasshouse and a visual assessment of herbicidal effects was made at intervals from 1 to 3 weeks after herbicide application (DAT=days after treatment). Assessment was on a percentage basis in comparison with untreated control plants (0%=no injury, 100%=complete kill).

[2] = system: spring wheat, TRZAS Triso; test: as above
Experimental: as §1, §2

[3] = system: spring barley, HORVS Montoya; test: Seed treatment with safener; post-emergence herbicide, crop damage; conditions: for HER effect + SAF / Reduction [%] / Reduction [Difference]: mefenpyr-diethyl 0.5 g a.i./kg seed
Description: (§3) For safener seed treatment trials, sufficient seed amounts of the respective crops (spring wheat (TRZAS); spring barley (HORVS)) were weighed into screw cap glass bottles with a minimum volume trice of the seeds.
(§4) As a first step, specified safeners formulated as wettable powder (WP) or wettable granules (WG) were weighed out for the required dosages (g a.i./kg seed), corresponding to the seed amounts. The safener amounts were mixed with a coloured slurry blind formulation type, prediluted with milk at 3.5% fat rate (25 mgs slurry formulation plus 2 ml milk per 10 grams of seed). A tube roller was used for coating. The solutions were gradually pipetted each on the rotating seeds followed by coating for min. 3 hours until all liquid had been soaked up by the seeds. Thereafter, the coated seeds were put flat on open trays for drying over night at room temperature.
(§5) Treated seeds were then placed into pots (7 cm diameter) on the surface of sandy loam, pressed down, flat covered with additional soil and finally covered with sandy soil, also pressed down, watered, and kept under good growth conditions in a greenhouse, until the plants had reached 2-leaf-stage (BBCH 12).
(§6) At that stage, post-emergence application of the specified herbicides was done on:
(§7) a) pot sets containing plants with safener-coated seeds as described above,
(§8) b) as a reference, pot sets of plants without seed treatment.
(§9) The herbicides were formulated as wettable powder (WP). Equivalent to the spray area, compound amounts were weighed out and diluted related to the water application rate (300 l/ha) to an aqueous suspension plus additive (1 l/ha MERO). Dosage related equivalents were conventionally sprayed on trays with the potted plants.
(§10) After application, the test plants were kept under good growth conditions in a greenhouse.
(§11) Assessment timings were 10 and 21 days after treatment (DAT) with the herbicide, by visual scoring of the crop damage in % (comparison of untreated with treated plants, either sprayed only with herbicide or with herbicide on plants with treated seeds).

[4] = system: spring wheat, TRZAS Triso; test: as above; conditions: for HER effect + SAF [%] (crop damage) / Reduction [%] / Reduction [Difference]: mefenpyr-diethyl 0.5 g a.i./kg seed; for HER effect [%] (crop damage, herbicide without safener): no safener
Description: as §3, §4, §5, §6, §7, §8, §9, §10, §11

[5] = HER 8 g a.i./ha + mefenpyr-diethyl 50 g a.i./ha, 10 DAT
[6] = HER 32 g a.i./ha + mefenpyr-diethyl 100 g a.i./ha, 10 DAT
[7] = HER 32 g a.i./ha + mefenpyr-diethyl 100 g a.i./ha, 21 DAT
[8] = herbicide alone 32 g a.i./ha, 21 DAT
[9] = HER 8 g a.i./ha post-emergence, 10 DAT
[10] = HER 32 g a.i./ha post-emergence, 10 DAT
[11] = HER 1.5 g a.i./ha + mefenpyr-diethyl 50 g a.i./ha, 10 DAT
[12] = HER 6 g a.i./ha + mefenpyr-diethyl 50 g a.i./ha, 10 DAT
[13] = HER 24 g a.i./ha + mefenpyr-diethyl 100 g a.i./ha, 10 DAT
[14] = HER 8 g a.i./ha post-emergence, 21 DAT
[15] = HER 32 g a.i./ha post-emergence, 21 DAT
[16] = HER 2 g a.i./ha + mefenpyr-diethyl 100 g a.i./ha, 21 DAT
[17] = herbicide alone 2 g a.i./ha, 21 DAT
[18] = HER 2 g a.i./ha + mefenpyr-diethyl 50 g a.i./ha, 21 DAT

Structure (SMILES): COC(=O)C1CC(NC(=O)C2(OC)CC(c3cc(F)cc(F)c3)=NO2)CO1 (mixture of isomers) [Example 1.72]
- HER effect + SAF [1, 5]: 0%
- Reduction [%] [1, 5]: 100%
- Reduction [Difference] [1, 5]: 30
- HER effect + SAF [1, 6]: 10%
- Reduction [%] [1, 6]: 80%
- Reduction [Difference] [1, 6]: 40
- HER effect ([1]; herbicide alone 8 g a.i./ha, 10 DAT): 30%
- HER effect ([1]; herbicide alone 32 g a.i./ha, 10 DAT): 50%
- HER effect + SAF [2, 7]: 10%
- Reduction [%] [2, 7]: 83%
- Reduction [Difference] [2, 7]: 50
- HER effect [2, 8]: 60%
- HER effect + SAF [3, 9]: 0%
- Reduction [%] [3, 9]: 100%
- Reduction [Difference] [3, 9]: 30
- HER effect + SAF [3, 10]: 0%
- Reduction [%] [3, 10]: 100%
- Reduction [Difference] [3, 10]: 50
- HER effect ([3]; herbicide alone 8 g a.i./ha post-emergence, 10 DAT): 30%
- HER effect ([3]; herbicide alone 32 g a.i./ha post-emergence, 10 DAT): 50%
- HER effect + SAF [%] (crop damage) ([4]; 21 DAT, HER dose 8 g a.i./ha): 0%
- Reduction [%] ([4]; 21 DAT, HER dose 8 g a.i./ha): 100%
- Reduction [Difference] ([4]; 21 DAT, HER dose 8 g a.i./ha): 20
- HER effect [%] (crop damage, herbicide without safener) ([4]; 21 DAT, HER dose 8 g a.i./ha): 20%
- HER effect + SAF [%] (crop damage) ([4]; 21 DAT, HER dose 32 g a.i./ha): 10%
- Reduction [%] ([4]; 21 DAT, HER dose 32 g a.i./ha): 83%
- Reduction [Difference] ([4]; 21 DAT, HER dose 32 g a.i./ha): 50
- HER effect [%] (crop damage, herbicide without safener) ([4]; 21 DAT, HER dose 32 g a.i./ha): 60%

Structure (SMILES): CC(C)OC(=O)C1CC(NC(=O)C2(C)CC(c3cccc(F)c3)=NO2)CO1 (mixture of isomers) [Example 1.78]
- HER effect + SAF [1, 7]: 10%
- Reduction [%] [1, 7]: 75%
- Reduction [Difference] [1, 7]: 30
- HER effect [1, 8]: 40%
- HER effect + SAF [2, 11]: 0%
- Reduction [%] [2, 11]: 100%
- Reduction [Difference] [2, 11]: 20
- HER effect + SAF [2, 12]: 10%
- Reduction [%] [2, 12]: 86%
- Reduction [Difference] [2, 12]: 60
- HER effect + SAF [2, 13]: 30%
- Reduction [%] [2, 13]: 57%
- Reduction [Difference] [2, 13]: 40
- HER effect ([2]; herbicide alone 1.5 g a.i./ha, 10 DAT): 20%
- HER effect ([2]; herbicide alone 6 g a.i./ha, 10 DAT): 70%
- HER effect ([2]; herbicide alone 24 g a.i./ha, 10 DAT): 70%
- HER effect + SAF [3, 14]: 0%
- Reduction [%] [3, 14]: 100%
- Reduction [Difference] [3, 14]: 20
- HER effect + SAF [3, 15]: 10%
- Reduction [%] [3, 15]: 75%
- Reduction [Difference] [3, 15]: 30
- HER effect ([3]; herbicide alone 8 g a.i./ha post-emergence, 21 DAT): 20%
- HER effect ([3]; herbicide alone 32 g a.i./ha post-emergence, 21 DAT): 40%
- HER effect + SAF [%] (crop damage) ([4]; 10 DAT, HER dose 6 g a.i./ha): 30%
- Reduction [%] ([4]; 10 DAT, HER dose 6 g a.i./ha): 57%
- Reduction [Difference] ([4]; 10 DAT, HER dose 6 g a.i./ha): 40
- HER effect [%] (crop damage, herbicide without safener) ([4]; 10 DAT, HER dose 6 g a.i./ha): 70%
- HER effect + SAF [%] (crop damage) ([4]; 10 DAT, HER dose 24 g a.i./ha): 30%
- Reduction [%] ([4]; 10 DAT, HER dose 24 g a.i./ha): 57%
- Reduction [Difference] ([4]; 10 DAT, HER dose 24 g a.i./ha): 40
- HER effect [%] (crop damage, herbicide without safener) ([4]; 10 DAT, HER dose 24 g a.i./ha): 70%

Structure (SMILES): C=CC1(C(=O)NC2C=CC(C(=O)OC)C2)CC(c2cc(F)cc(F)c2)=NO1 (stereo not shown) [Example 1.26]
- HER effect + SAF [1, 16]: 0%
- Reduction [%] [1, 16]: 100%
- Reduction [Difference] [1, 16]: 60
- HER effect [1, 17]: 60%
- HER effect + SAF [2, 18]: 50%
- Reduction [%] [2, 18]: 44%
- Reduction [Difference] [2, 18]: 40
- HER effect [2, 17]: 90%
- HER effect + SAF [%] (crop damage) ([4]; 21 DAT, HER dose 2 g a.i./ha): 30%
- Reduction [%] ([4]; 21 DAT, HER dose 2 g a.i./ha): 67%
- Reduction [Difference] ([4]; 21 DAT, HER dose 2 g a.i./ha): 60
- HER effect [%] (crop damage, herbicide without safener) ([4]; 21 DAT, HER dose 2 g a.i./ha): 90%
- HER effect + SAF [%] (crop damage) ([4]; 21 DAT, HER dose 8 g a.i./ha): 70%
- Reduction [%] ([4]; 21 DAT, HER dose 8 g a.i./ha): 25%
- Reduction [Difference] ([4]; 21 DAT, HER dose 8 g a.i./ha): 23
- HER effect [%] (crop damage, herbicide without safener) ([4]; 21 DAT, HER dose 8 g a.i./ha): 93%
